Each structure is given as a SMILES string.

Series [1] concerns isolated non-ischemic working rat heart. Briefly: Glucose oxidation rates in isolated non-ischemic working rat heart ([14C] glucose, 14CO2 production). The conditions noted are these: 60 minutes aerobic perfusion, compound added about 5 minutes into the aerobic period; saline control 1580±183. As for the experimental part:
The goal was to determine if […] altered glucose oxidation rates or cardiac function in the isolated non-ischemic working rat heart model. This was achieved by subjecting rat hearts to 60 minutes of aerobic perfusion. […] was added about 5 minutes into the aerobic period and the effects of […] on glucose metabolism was determined during the aerobic period. […] Rat hearts were cannulated for isolated working heart perfusions as described previously (Lopaschuk et al., J Pharmacol Exp Ther. 1993 January;264(1):135-44). In brief, male Sprague-Dawley rats (0.3-0.35 kg) were anesthetized with pentobarbital sodium (60 mg/kg i. p.). The hearts were quickly excised, the aorta was cannulated, and a retrograde perfusion at 37° C. was initiated at a hydrostatic pressure of 60 mm Hg. Hearts were trimmed of excess tissue, and the pulmonary artery and the opening to the left atrium were then cannulated. […] Spontaneously beating hearts were used in all perfusions, heart rate and aortic pressure were measured with a Biopac Systems Inc. blood pressure transducer connected to the aortic outflow line. Cardiac output and aortic flow were measured with Transonic […] ultrasonic flow probes in the preload and afterload lines, respectively. Coronary flow was calculated as the difference between cardiac output and aortic flow. […]

Series [2] can be described thus: Animal models for treatment of stress-induced angina (canine model of myocardial ischemia, canine model of exertional dysfunction, isolated perfused rat heart model of low flow ischemia). The class given is in vivo. The conditions noted are these: compared with untreated or sham treated control animals. From the text: The canine model of myocardial ischemia, the canine model of exertional dysfunction, and the isolated perfused rate heart model of low flow ischemia, as previously and elsewhere described, is used to determine the effectiveness of P5P, pyridoxal, pyridoxine, and the compounds synthesized in Examples 1-24, to determine effectiveness of these compounds in treatment of angina.
The animal model experiments of Example 26 are repeated, this time with the combination treatment groups as elucidated in Examples 28, 29 and 30.

Series [3] in a line: Treatment of stress-induced angina in patients (P5P, pyridoxine, derivatives; alone and in combination therapies). It counts as in vivo, human. As for the experimental part: Patients with a history of exercise induced angina are treated with P5P either before or after the onset of angina. Several measures are used to test the effectiveness of P5P for the treatment of angina including the time to onset of angina, exercise duration, time to 1 mm ST depression, and patient pain evaluation.
The experiment of Example 25 is repeated, this time testing combination therapies.
The Experiments of Example 28 are repeated, this time using pyridoxine instead of P5P.

For series [4] the following is noted: water, alcohol, and ether; cited from earlier work.
Where [5] appears, read: patients with a history of exercise induced angina, treated before or after the onset of angina.

The compound `O=C(O)C(Cl)Cl` [DCA, dichloroacetic acid, reference compound] registered a glucose oxidation rates in series [1] of 2422±140.

For the compound `Cc1ncc(CO)c(CO)c1O` [pyridoxine, 2-methyl-3-hydroxy-4,5-di(hydroxymethyl)pyridine], the “symptoms and levels of angina” value in series [2] was “significantly lower symptoms and levels of angina”.

Take `Cc1ncc(COP(=O)(O)O)c(C=O)c1O` [Example P5P, 3-hydroxy-2-methyl-5-[(phosphonooxy)methyl]-4-pyridine-carboxaldehyde]: in series [3] (setting [5]), the exercise duration result is given as “increased”, the “onset to angina (time to onset of angina)” value is “diminished”, the “patient pain (patient pain evaluation)” value was “diminished” and the “time to 1 mm ST depression” value is reported as “diminished”. For the same compound, in series [3] (patients, P5P treatment alone (Example 28)), the “angina outcomes, treatment alone” value is given as “improves angina outcomes”. The “symptoms and levels of angina” value in series [2] is “significantly lower symptoms and levels of angina”. The compound also registered a glucose oxidation rates in series [1] of 2253±230. Moreover, the solubility result in series [4] was “essentially insoluble in water, alcohol, and ether”.

Regarding `Cc1ncc(CO)c(C=O)c1O` [pyridoxal], the “symptoms and levels of angina” value in series [2] is “significantly lower symptoms and levels of angina”.

Source of the values: patent publication US20080311099A1, “Pyridoxal-5-Phosphate and Related Compounds in Combination With Therapeutic Cardiovascular Compounds for Treating Angina” (MEDICURE INTERNATIONAL INC., priority 2004, published 2008).
